Experiments:
Staphylococcus aureus [1] = test: minimum inhibitory concentration test (normalized T0, growth after neutralisation); type: cell-based; details: for inhibitory effect (normalized T0, lower = increased inhibitory effect): FIG. 1, 0.5% essential oil compound, 5 minute contact time, 24 hour growth
Procedure: Various essential oil compounds were evaluated in a minimum inhibitory concentration test (e.g., against Staphylococcus aureus), to evaluate the inhibiting characteristics of the various tested compounds. […] Each candidate essential oil compound active was tested at 0.5% concentration, with 1% sodium lauryl sulfate (SLS), with a 5 minute contact time. As those of skill in the art will appreciate, the testing was conducted following EPA microbiology efficacy protocols, where the candidate active to be tested is applied to an inoculum (e.g., Staphylococcus aureus), and after a given contact time (e.g., 5 minutes), the active being tested is neutralized (e.g., with growth media), and the treated inoculum is allowed to grow out over a period of 24 hours. After the 24 hour growth period, an automated plate reader is used to measure inoculum growth, and the results are tabulated, relative to a control standard, which was not contacted with any active. Such testing therefore allows determination of which candidate actives provide for an inhibitory effect relative to a target microbe, as well as information relative to which candidate actives may be better than others.
Based on the results seen in FIG. 1, carvacrol was identified as a good candidate for further study. […] All tested samples included 1% SLS, with 0.5% of the shown co-surfactant, and 0.2% of the shown essential oil compound, with the results averaged over 3 contact times of 5, 15, and 30 minutes. […] For example, the amine oxide, sophorolipid, alkylpolyglycoside, and alcohol ethoxylate show such results, particularly in combination with carvacrol. For this reason, such surfactants may be avoided, in at least some embodiments of the present invention.
All tested samples included 1.5% SLS as the primary surfactant, with 1% of the shown essential oil compound, and 1% of the tested co-surfactant.
In particular, FIG. 5 plots change in T0 (ΔT0) compared to carvacrol as used alone (i.e. with no secondary essential oil compound).

Staphylococcus aureus [2] = test: log reduction, EPA germicidal spray test (GST) / OECD quantitative method; type: cell-based; details: FIG. 7; 1% SLS, 0.5% second alkyl sulfate, 0.4% silicate buffer, 0.25% chelating agent, carvacrol 0.2% up to 1%; 3 and 5 minute contact times
Procedure: Tests were performed under standards promulgated by the EPA (e.g., the EPA's germicidal spray test “GST”) and the OECD (e.g., the Organization for Economic Co-Operation and Development). The OECD standards include an evaluation of the tested compositions ability to work in an environment where the target surface being cleaned includes soiling. The GST test is carried out according to the EPA's Standard Operating Procedure for Germicidal Spray Products as Disinfectants (GSPT): Testing of Staphylococcus aureus, Pseudomonas aeruginosa, and Salmonella enterica, published under SOP MB-06-09, which is herein incorporated by reference in its entirety. Such is available at https://www.epa.gov/sites/default/files/2018-01/documents/mb-06-09,pdf. The OECD test is carried out according to the EPA's Standard Operating Procedure for OECD Quantitative Method for Evaluating Bactericidal and Mycobactericidal Activity of Microbicides Used on Hard, Non-Porous Surfaces, published under SOP MB-25-05, which is herein incorporated by reference in its entirety. Such is available at https://www.epa.gov/sites/default/files/2019-05/documents/mb-25-05.pdf.

[3] = FIG. 2, 1% SLS, 0.5% co-surfactant, 0.2% essential oil compound, averaged over contact times of 5, 15 and 30 minutes

| Compound | inhibitory effect (normalized T0, lower = increased inhibitory effect) (Staphylococcus aureus [1]; 1% SLS) | inhibitory effect (normalized T0) (Staphylococcus aureus [1]; FIG. 3, 1.5% SLS, 1% essential oil compound, 1% co-surfactant) | log reduction against Staphylococcus aureus (Staphylococcus aureus [2]) | inhibitory effect (normalized T0) (Staphylococcus aureus [1]; [3]) |
| --- | --- | --- | --- | --- |
| Cc1ccc(C(C)C)cc1O [carvacrol] | best inhibitory effect | lowest T0 values | increased log reduction with increasing carvacrol concentration | – |
| Cc1ccc(C(C)C)c(O)c1 [thymol, reference compound] | some inhibitory effect | – | – | – |
| alcohol ethoxylate | – | – | – | opposite of an inhibitory effect |
| alkylpolyglycoside | – | – | – | opposite of an inhibitory effect |
| sophorolipid | – | – | – | opposite of an inhibitory effect |

Reference: US20230301299A1, “DISINFECTING FORMULATIONS WITH CARVACROL” (priority 2022, published 2023)
